In PMC9890585 (Chemical Science, 2022):

Molecular target: Concanavalin A (Con A) (Canavalia ensiformis, UniProt P02866)
Assay type: biochemical, jack bean (Canavalia ensiformis)
Details: 1000 equiv. added after 180 min

COC1OC(CO)C(O)C(O)C1O [methyl-α-D-mannose]
effect of competitive inhibitor on Con A-complex aggregates: immediate deaggregation
